Patent US20010053766A1, “Method of treating disorders of the eye” (priority 2000, published 2001)
Ends that are not written are not given here.

How the values were obtained:
[1] = test system: outflow pathway cells of perfused porcine eyes; assay: Morphological studies of perfused eyes (transmission electron microscopy of outflow pathway); details: porcine eyes perfused with peptide, 4 pairs, versus sham controls
Protocol: After completion of RGD perfusion experiments, 4 pairs of the experimental and the control eyes were fixed for morphological examination. The fixation was performed by perfusing overnight at constant pressure of 15 mmHg with perfusion buffer containing 2.5% gluteraldehyde and 2.0% formaldehyde. Small cross-section wedges of the outflow pathway area of fixed eyes were prepared for transmission electron microscopy as described previously (Epstein et al, Invest. Ophthalmol Vis. Sci. 40:74-8116 (1999)). The specimens were fixed in 1% osmium tetraoxide in 0.1 M sodium cacodylate buffer and stained with 1% uranyl acetate for 1 hr in dark. Further, the tissues were dehydrated, infiltrated and embedded on Spurr embedding medium (Ted Pella, Inc., Redding, Calif.). Ultrathin sections (70 nm) were obtained by microtomy and stained with potassium permanganate and Sato's lead sequentially before examined with a transmission electron microscope (1200 EX; JEOL, Peabody, Mass.).

[2] = test system: New Zealand White rabbits; assay: RGD-peptide injection in the anterior chamber of rabbit eye; assay type: in vivo; details: 500 μg in PBS injected into the anterior chamber of one eye, live rabbits n=3
Protocol: New Zealand White rabbits of approximately five pounds were used for this experiment. Baseline Intraocular Pressure (IOP) data was obtained using a MENTOR tonopen prior to anaesthesia. The rabbits were anaesthetized with IM KETAMINE and topical proparacaine. The GRGDTP peptide (500 μg) was dissolved in phosphate buffered saline (PBS) and injected into the anterior chamber of only one eye. Further intraocular pressure mesurements were performed with a tonopen and data recorded in a time dependent manner, as shown in FIG. 8.
The results are expressed as percent change in IOP as compared to basal values obtained before injection of the RGD peptide. The basal value was taken as IOP (0%) in both eyes and the contralateral eye was used as control.

[3] = test system: Human Schlemm's canal (SC) cell monolayers; assay: SC cell monolayer permeability barrier function (HRP diffusion on Transwells); assay type: cell-based; details: 200 μM peptide, 1 hr, complete medium, n=7; mean ± S.E.
Protocol: (§1) Human cadaver eye tissues were obtained from the National Disease Research Interchange (NDRI; Philadelphia, Pa.), and the SC cells were isolated following the techniques previously described (Stammer et al, Invest. Ophthalmol. Vis. Sci. 39:1804 (1998)). The cells were grown in Dulbecco's modified Eagle's medium with 10% fetal bovine serum, 2 mM L-glutamine, 100 U/ml penicillin G and 100 μg/ml streptomycine sulfate (all from GibcoBRL, Gaithersburg, Md.). The primary cultures of SC cells were used between the passages of three to six, throughout the experiments.
To correlate the specific effects of the RGD peptide compared to a control RGE peptide, the standard device was used to measure the monolayer permeability barrier function on Transwells cell culture chambers (fibronectin-coated polycarbonate filters, […] pore size, Costar Corp.) as described by Lampugnani et al (J. Cell Biol. 112: 479-490 (1991)). The diffusion of horseradish peroxidase (HRP) through SC cell monolayer was determined with and without RGD hexapeptide GRGDTP (Sigma, St. Louis, Mo.) or known control RGE hexapeptide GRGESP (GibcoBRL, Gaithersberg, Md.). […] Results were expressed as percent change in enzyme activity as compared to untreated controls. Values were obtained from three independent experiments and expressed as means±S.E. A paired t-test analysis was also performed with respect to untreated controls.

[4] = test system: Human Schlemm's canal (SC) cell monolayers; assay: SC cells monolayer integrity assay in vitro (phase contrast, F-actin and focal adhesion staining); assay type: cell-based; details: complete medium, 37 C
Protocol: as §1
To evaluate the effect of RGD peptide on monolayer integrity, the SC cells were seeded on fibronectin-coated coverslips and grown for 10 days in complete medium. Before the experiment, the gaps in the confluent cells layer on coverslips were examined thoroughly. Further, the culture media was replaced with RGD peptide or control RGE peptide (200 μM)-containing complete medium and incubated at 37° C. in CO2 incubator. The changes in morphology (cell retraction, cell-cell attachments) were followed for 3 hrs. The induced morphological changes were monitored by phase contrast microscopy (Zeiss IM 35). For clear illustration of the specific and non-toxic effects of RGD peptide, the changes in SC cells monolayer integrity and reversibility were followed after treatment at higher concentration (1.0 mM) as compared to control RGE peptide. The coverslips were fixed with 3.7% formaldehyde and stained for F-actin and focal adhesions as described earlier (Lampugnani et al, J. Cell Biol. 112: 479-490 (1991)). The RGD-containing medium was removed with complete culture medium after three times washing and incubation was continued. Further, the reversibility of the gaps formation was followed.

What does the source list for GRGDTP [GRGDTP]?
cellular toxicity in outflow pathway of perfused eyes [1]: did not show signs of cellular toxicity; cellular toxicity in outflow pathway of perfused eyes ([1]; listed as RGD): no sign of cellular toxicity; evidence of anterior chamber inflammation and wound leakage [2]: no clinically significant changes

How did the “increase in SC cells monolayer permeability (HRP diffusion) as compared to untreated controls” value [3] turn out when GRGESP was run?
The value was 12%±3.

And the “morphological effect on SC cell monolayer integrity” value (shortened to “morphological effect”) ([4]; 200 μM peptide, up to 3 hrs)?
The value was “compact cellular morphology”.

What about the “morphological effect” value ([4]; 1.0 mM peptide, 3 hrs) of the same substance?
Its value is “no such effect was noted”.

And the “morphological effect” value ([4]; 1.0 mM peptide, 3 hrs, listed as RGE peptide)?
The value was “no detectable effects”.
